Measured values from US20220072019A1, “INHIBITORS OF SARM1 IN COMBINATION WITH NAD+ OR A NAD+ PRECURSOR” (Disarm Therapeutics, Inc., priority 2018, published 2022).
Entries after “also recorded” stand apart in the source; their conditions may differ.

System: DRG axons
Test: Axon degeneration assay (axotomy of mouse DRG drop cultures)
Assay type: cell-based
Protocol: Mouse dorsal root ganglion neurons (DRGs) were dissected out of E12.5 CD1 mice (50 ganglia per embryo) and incubated with 0.5% Trypsin solution containing 0.02% EDTA (Gibco) at 37° C. for 15 min. The cells were then triturated by gentle pipetting and washed 3 times with DRG growth medium (Neurobasal medium (Gibco) containing 2% B27 (Invitrogen), 100 ng/ml 2.5S NGF (Harland Bioproducts), […] 5-fluoro-2′deoxyuridine (Sigma), penicillin, and streptomycin). Cells were suspended in the DRG growth medium. DRG drop cultures were created by spotting 5000 cells/well into the center of each well of a 96-well tissue culture plate coated with poly-D-Lysine (0.1 mg/ml; Sigma) and laminin ([…]; Invitrogen). Cells were allowed to adhere to the plates in a humidified tissue culture incubator (5% CO2) for 15 min and then DRG growth medium was gently added ([…]).
To study the axonal protective effects of combining NR supplementation with a SARM1 inhibitor, 6 day-old mouse DRG drop cultures were preincubated with 100 μM NR for 24 hours before axotomy. 2 hours prior to axotomy, DRG cultures were treated with SARM1 inhibitors, in the continued presence of 100 μM NR. Potent SARM1 inhibitors were selected from two classes: isoquinoline and isothiazole SARM1 inhibitors. Isoquinoline SARM1 inhibitors tested included I-26 and I-86, while isothiazole SARM1 inhibitors tested included II-6 and II-32. The SARM1 inhibitors were tested using concentrations ranging from 0.1 to 33 μM.
A manual axotomy was performed at time 0 by transecting the axons of the DRG neurons with a blade. After axotomy, DRG cultures remained exposed to the to SARM1 inhibitor alone, 100 μM NR alone, or the combination of SARM1 inhibitor and NR. At either 16 or 24 hours, DRG cultures were fixed in a buffered solution containing 1% PFA and sucrose and stored at 4° C. prior to imaging. Bright-field images of DRG axons and cell bodies were collected using the 20× water immersion lens of a Phenix automated confocal microscope (PerkinElmer) and quantitation of axonal damage was performed using in-house developed scripts (Acapella, PerkinElmer). The effect of NR alone in protecting distal axons from fragmentation was determined at a concentration of 100 μM. The effect of combining 100 μM NR with varying concentrations of a SARM1 inhibitor was compared to the individual protective effects of either 100 μM of NR alone or an equivalent concentration of a SARM1 inhibitor alone.

[1] = 3.3 μM SARM1 inhibitor alone, 16 h post-axotomy
[2] = 3.3 μM SARM1 inhibitor alone, 24 h post-axotomy
[3] = 1.1 μM SARM1 inhibitor alone, 24 h post-axotomy

Compound: COCCn1sc(Nc2ccccc2C(F)(F)F)c(C#N)c1=O [II-32]
- axonal protection (degeneration index of DRG axons) (0.11 μM SARM1 inhibitor alone, 16 h post-axotomy): NR alone provided greater protection than 0.11 μM and 0.33 μM of compound II-32 alone
- axonal protection (degeneration index of DRG axons) (0.11 μM SARM1 inhibitor alone, 24 h post-axotomy): NR alone provided greater protection than 0.11 μM and 0.33 μM compound II-32 alone
- axonal protection (degeneration index of DRG axons) (0.33 μM SARM1 inhibitor alone, 16 h post-axotomy): NR alone provided greater protection than 0.11 μM and 0.33 μM of compound II-32 alone
- axonal protection (degeneration index of DRG axons) (0.33 μM SARM1 inhibitor alone, 24 h post-axotomy): NR alone provided greater protection than 0.11 μM and 0.33 μM compound II-32 alone
- axonal protection (degeneration index of DRG axons) (1 μM SARM1 inhibitor alone, 16 h post-axotomy): greater protection than NR alone
- axonal protection (degeneration index of DRG axons) (1 μM SARM1 inhibitor alone, 24 h post-axotomy): greater protection than NR alone

Compound: NC(=O)c1ccc[n+]([C@@H]2O[C@H](CO)[C@@H](O)[C@H]2O)c1 [NR, 1-(β-D-ribofuranosyl)nicotinamide, reference compound]
- axonal protection (degeneration index of DRG axons) (100 μM NR alone, 16 h post-axotomy): modest amount of axonal protection
- axonal protection (degeneration index of DRG axons) (100 μM NR alone, 24 h post-axotomy): modest level of protection

Compound: N#Cc1c(O)nsc1Nc1ccccc1C(F)(F)F [II-6]
- axonal protection (degeneration index of DRG axons) [1]: stronger protection that NR alone; also recorded: stronger protection than NR alone
- axonal protection (degeneration index of DRG axons) [2]: stronger protection than NR alone

Compound: COc1cc(Br)c2ccncc2c1 [I-86]
- axonal protection (degeneration index of DRG axons) (1.1 μM SARM1 inhibitor alone, 16 h post-axotomy): NR alone provided greater protection than 1.1 μM compound I-86 alone
- axonal protection (degeneration index of DRG axons) [3]: less protection than NR alone
- axonal protection (degeneration index of DRG axons) [1]: greater protection than NR alone

Compound: Ic1cccc2cnccc12 [I-26]
- axonal protection (degeneration index of DRG axons) [3]: no statistically significant benefit
- axonal protection (degeneration index of DRG axons) [2]: more protection than with NR alone
- axonal protection (degeneration index of DRG axons) (SARM1 inhibitor alone, concentration not stated in the sentence (1.1 or 3.3 μM tested), 16 h post-axotomy): modest amount of axonal protection
